Assay results taken from patent US7569726B2, “Indanone derivatives that inhibit prolyl hydroxylase” (Amgen Inc., priority 2007, dated 2009).

Biological target: HIF PHD2 (Homo sapiens, UniProt Q9GZT9)
Assay: PHD2 inhibition assay (TR-FRET, VCB-Eu detection of hydroxylated P564-HIF1α peptide)
Type: biochemical
Settings: 2 nM PHD2, 100 nM P564-HIF1α peptide, 0.25 μM 2-oxoglutarate, 100 μM FeCl2, pH 6, TR-FRET
Experimental: Inhibition of HIF PHD2 activity was quantified utilizing the TR-FRET technology. HIF PHD2 catalyzes a hydroxyl modification on the proline residue of the P564-HIF1α peptide substrate (Biotin-DLEMLAPYIPMDDDFQL (SEQ ID NO: 7)) resulting in recognition and binding of the europylated Von Hippel-Lindau protein (pVHL), elongin B and elongin C heterotrimeric (VCB-Eu) complex.
The PHD2 inhibition assay was executed by addition of freshly dissolved FeCl2 to 178.57 μM (100 μM final concentration) in PHD2 Reaction Buffer containing 30 mM MES, pH 6, 10 mM NaCl, 0.25% Brij-35, 0.01% BSA, and 1% DMSO. 28 μL of the iron solution and 2 μL of inhibitor compounds serially diluted in 100% DMSO (5% DMSO final) were added to black polypropylene 96-well microtiter plates. To that, 10 μL of 10 nM PHD2 (2 nM final) was added to all wells of the plate except for the 8 wells of column 12 (LO control), and allowed to incubate at room temperature on the shaker for one hour. Column 6 was the HI control containing PHD2 enzyme and 5% DMSO vehicle, but no inhibitor compound. To initiate the PHD2 enzymatic reaction, 10 μL of a solution containing 500 nM P564-HIF1α peptide (100 nM final), 10 mM ascorbic acid (2 mM final), and 1.25 μM 2-oxoglutarate (α-ketoglutarate; 0.25 μM final) in PHD2 Reaction Buffer was added to all wells of the plate and allowed to incubate on the shaker at room temperature for one hour.
The reaction was terminated by addition of 25 μL TR-FRET Buffer (50 mM TRIS-HCl, pH 9, 100 mM NaCl, 0.05% BSA, and 0.5% Tween-20) containing 150 mM succinate (product inhibitor; 50 mM final), 75 nM streptavidin-APC (25 nM final), and 7.5 nM VCB-Eu (2.5 nM final). The TR-FRET detection reagents were placed on a shaker for 1 hour to reach binding equilibrium before reading on the Discovery platform (PerkinElmer). Europium is excited at 315 nm and phosphoresces at 615 nm with a large Stoke's shift. APC, in turn, emits at 655 nm upon excitation at 615 nm. The TR-FRET signal is measured as the ratio of the APC 655 nm signal divided by the internal europium reference 615 nm emission signal.
The POC (percentage of control) was determined by comparing the signal from hydroxylated peptide substrate in the enzyme reaction containing inhibitor compound with that from PHD2 enzyme with DMSO vehicle alone (HI control), and no enzyme (LO control). POC was calculated using the formula: % control (POC)=(cpd−average LO)/(average HI−average LO)*100. Data (consisting of POC and inhibitor concentration in μM) was fitted to a 4-parameter equation (y=A+((B−A)/(1+((x/C)^D))), where A is the minimum y (POC) value, B is the maximum y (POC), C is the x (cpd concentration) at the point of inflection and D is the slope factor) using a Levenburg-Marquardt non-linear regression algorithm.

Chain of HIF PHD2 (Q9GZT9 whole entry): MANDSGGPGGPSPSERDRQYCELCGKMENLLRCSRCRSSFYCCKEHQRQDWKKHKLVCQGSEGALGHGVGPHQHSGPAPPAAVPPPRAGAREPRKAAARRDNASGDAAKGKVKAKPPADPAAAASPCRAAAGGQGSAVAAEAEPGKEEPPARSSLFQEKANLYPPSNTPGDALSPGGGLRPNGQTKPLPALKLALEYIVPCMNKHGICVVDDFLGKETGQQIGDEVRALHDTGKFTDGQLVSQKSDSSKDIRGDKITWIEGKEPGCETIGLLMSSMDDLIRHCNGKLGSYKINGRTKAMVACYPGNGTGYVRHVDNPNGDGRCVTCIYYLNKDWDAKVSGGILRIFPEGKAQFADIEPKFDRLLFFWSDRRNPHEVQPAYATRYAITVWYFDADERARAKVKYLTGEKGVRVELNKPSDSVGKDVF

IC50 | SMILES
2.8 nM | O=C(O)CNC(=O)C1=C(O)c2c(cccc2-c2ccccc2)C1=O [Example 9, 2-(3-hydroxy-1-oxo-7-phenyl-1H-indene-2-carboxamido)acetic acid]
25.5 nM | O=C(O)CNC(=O)C1=C(O)c2c(F)cccc2C1=O [Example 7]
22.5 nM | O=C(O)CNC(=O)C1=C(O)c2c(I)cccc2C1=O [Example 1, 2-(3-hydroxy-4-iodo-1-oxo-1H-indene-2-carboxamido)acetic acid]
3 nM | COc1cccc(-c2cccc3c2C(=O)C(C(=O)NCC(=O)O)=C3O)c1 [Example 17, 2-(3-hydroxy-7-(3-methoxyphenyl)-1-oxo-1H-indene-2-carboxamido)acetic acid]
13 nM | O=C(O)CNC(=O)C1=C(O)c2cc(C(F)(F)F)ccc2C1=O [Example 3, 2-(3-hydroxy-1-oxo-5-(trifluoromethyl)-1H-indene-2-carboxamido)acetic acid]
22.1 nM | COc1ccccc1-c1cccc2c1C(=O)C(C(=O)NCC(=O)O)=C2O [Example 16, 2-(3-hydroxy-7-(2-methoxyphenyl)-1-oxo-1H-indene-2-carboxamido)acetic acid]
9.5 nM | O=C(O)CNC(=O)C1=C(O)c2c(Cl)cccc2C1=O [Example 4, 2-(4-chloro-3-hydroxy-1-oxo-1H-indene-2-carboxamido)acetic acid]
47.2 nM | O=C(O)CNC(=O)C1=C(O)c2c(Cl)ccc(Cl)c2C1=O [Example 8, 2-(4,7-dichloro-3-hydroxy-1-oxo-1H-indene-2-carboxamido)acetic acid]
5.5 nM | COc1cccc(-c2ccc3c(c2)C(=O)C(C(=O)NCC(=O)O)=C3O)c1 [Example 19, 2-(3-hydroxy-6-(3-methoxyphenyl)-1-oxo-1H-indene-2-carboxamido)acetic acid]
50.1 nM | O=C(O)CNC(=O)C1=C(O)c2cc(F)ccc2C1=O [Example 6, 2-(6-fluoro-3-hydroxy-1-oxo-1H-indene-2-carboxamido)acetic acid]
3.6 nM | COc1ccc(-c2cccc3c2C(O)=C(C(=O)NCC(=O)O)C3=O)cc1 [Example 11, 2-(3-hydroxy-4-(4-methoxyphenyl)-1-oxo-1H-indene-2-carboxamido)acetic acid]
22 nM | COc1ccc(-c2ccc3c(c2)C(O)=C(C(=O)NCC(=O)O)C3=O)cc1 [Example 12, 2-(3-hydroxy-5-(4-methoxyphenyl)-1-oxo-1H-indene-2-carboxamido)acetic acid]
20.6 nM | O=C(O)CNC(=O)C1=C(O)c2cc(Br)ccc2C1=O [Example 2, 2-(5-bromo-3-hydroxy-1-oxo-1H-indene-2-carboxamido)acetic acid]
3.6 nM | O=C(O)CNC(=O)C1=C(O)c2ccc(-c3ccccc3Cl)cc2C1=O [Example 18, 2-(6-(2-chlorophenyl)-3-hydroxy-1-oxo-1H-indene-2-carboxamido)acetic acid]
3.8 nM | O=C(O)CNC(=O)C1=C(O)c2c(cccc2-c2ccc(Cl)cc2)C1=O [Example 13, 2-(4-(4-chlorophenyl)-3-hydroxy-1-oxo-1H-indene-2-carboxamido)acetic acid]
8.5 nM | O=C(O)CNC(=O)C1=C(O)c2c(cccc2-c2ccccc2Cl)C1=O [Example 15, 2-(4-(2-chlorophenyl)-3-hydroxy-1-oxo-1H-indene-2-carboxamido)acetic acid]
11.6 nM | O=C(O)CNC(=O)C1=C(O)c2ccc(-c3ccccc3)cc2C1=O [Example 10, 2-(3-hydroxy-1-oxo-6-phenyl-1H-indene-2-carboxamido)acetic acid]
3 nM | O=C(O)CNC(=O)C1=C(O)c2c(cccc2-c2cccc(Cl)c2)C1=O [Example 14, 2-(4-(3-chlorophenyl)-3-hydroxy-1-oxo-1H-indene-2-carboxamido)acetic acid]
